Reference: patent US20060122137A1, “5'-methylpyrimidine and 2'-O-methyl ribonucleotide modified double-stranded ribonucleic acid molecules” (Nastech Pharmaceutical Company Inc., priority 2003, published 2006)

Tests used:
[1] = test system: ribonucleases present in rat plasma; assay: Stability of siRNA in rat plasma (PAGE gel, densitometry); type: in vitro ADME; details: for level of degradation on PAGE gel after treatment with plasma: fresh rat plasma, 37° C., time points 0, 30, 60 and 20 min; for Stability Ranking: rat plasma 37° C.
Procedure: At various time points (0, 30, 60 and 20 min), 50 μ*l of the mixture was taken out and immediately extracted by phenol:chloroform. SiRNAs were dried following precipitation by adding 2.5 volume of isopropanol alcohol and subsequent washing step with 70% ethanol. After dissolving in water and gel loading buffer the samples were analyzed on 20% polyacrylamide gel, containing 7 M urea and visualized by ethidium bromide staining and quantitated by densitometry.
The purpose of this experiment was to determine whether 2′-O-methyl modified ribonucleotides and the substitution of uridines with ribothymidines (5-methyluridine) provide for greater siRNA stability against rat plasma ribonucleases.
At various time points (0, 30, 60 and 20 min), 50 μl of the mixture was taken out and immediately extracted by phenol:chloroform. siRNAs were dried following precipitation by adding 2.5 volume of isopropanol alcohol and subsequent washing step with 70% ethanol. After resuspending in water and gel loading buffer the samples were analyzed gel electrophoresis on a 20% polyacrylamide gel, containing 7 M urea and subsequently visualized by ethidium bromide staining and quantified by densitometry.

[2] = Thermal melting profiles (Tm) of β-gal siRNA duplexes; type: physicochemical; details: for Avg. Tm from 1st Exp. / Tm: 1st experiment; for Avg. Tm from 2nd Exp.: 2nd (duplicate) experiment; for melts at a temperature of: text summary of Table 7; for melting temperature higher than the wild type (duplex I): versus duplex I
Excerpt: The purpose of this experiment was to determine the effect of incorporating ribothymidines in a double stranded RNA molecule in place of uridines on the melting temperature (TM) of the siRNA molecule. A higher Tm correlates with increased siRNA duplex stability.
To determine the effect of replacing uridines with ribothymidines in the siRNA duplex upon melting temperature, thermal melting profiles were generated for four β-galactosidase (β-gal) siRNA molecules (table 5). These four β-gal siRNA duplexes differ only by the presence or absence of ribothymidines in the siRNA duplex. Where rT is 5-methyluridine.
The stock solutions of single stranded oligonucleotides were prepared by dissolving the selected sequences in 400 μL 10 mM buffer phosphate pH 7.0 containing 0.1 M NaCl and 0.1 mM EDTA and diluted (1 μL to 200 μL) with water and absorbencies (A260) were measured and the contents were calculated. Also the integrity of the oligonucleotides was confirmed by HPLC analysis. To prepare the siRNA duplexes, the single stranded oligonucleotides were mixed and allowed to anneal. The UV absorption (A260) for each siRNA duplex was measured and their value are as follows: I (0.28), II (0.54), III (0.31), and IV (0.45). To test for reproducibility, the melting profile study was done in duplicate.
The thermal melting profiles of the duplexes I, II, III and IV were recorded on Shimadzu UV-VIS 1601 with thermoelectrically temperature controlled through the Peltier device. The temperature was changed at the rate of 0.5° C./minute from 90° C. to 25° C. while the absorption recorded at 260 nm. The reverse experiment is also repeated. The “melting” process is a physical phenomenon. Therefore, the generated profile (90° to 25°) ought to be superimposed on the reverse ([…] to 90°).
Differential curves were used to determine the melting point (Tm) of the duplexes. The shape of the curve defined by the derivative of a curve (versus 1/T) was used to make a robust determination of Tm and other thermodynamic data. Shimadzu TMSPC-8 and its associated software performed the needed calculations.

interferon response = assay: Interferon response in vitro; type: cell-based
Procedure: Interferon responsiveness is a potential side-effect of tranfecting cells with siRNAs. Thus, a study was performed in vitro to assess whether various isoforms of the LC20 siRNA would elicit an interferon response. Both unmodified and modified of the 19-mer LC20 siRNA and 21-mer LC20 siRNA were tested.

Row | Substance | level of degradation on PAGE gel after treatment with plasma [1] | Avg. Tm from 1st Exp. [2] | Avg. Tm from 2nd Exp. [2] | Tm ([2]; Down profile) | Tm ([2]; Up profile) | melts at a temperature of [2] | melting temperature higher than the wild type (duplex I) [2] | Stability Ranking ([1]; LC20 siRNAs (Table 3)) | interferon response (interferon response) | Stability Ranking ([1]; LC13 siRNAs (Table 4))
1 | I (WT): unmodified β-gal siRNA: CUACACAAAUCAGCGAUUU TT / TT GAUGUGUUUAGUCGCUAAA (sense CUACACAAAUCAGCGAUUUTT; antisense TTGAUGUGUUUAGUCGCUAAA; chemistry not fully specified; one strand is listed 3' to 5') [reference compound] | begins to degrade almost immediately | 64.9 °C | 64.9 °C | 65.6 °C | 64.3 °C | – | – | – | – | –
2 | II: β-gal siRNA, all uracils in both strands changed to ribothymidine (SEQ ID NO:1/2) (chain 1 CNACACAAANCAGCGANNNTT; chain 2 AAANCGCNGANNNGNGNAGTT; RNA at 1, 2, 3, 4, 5, 6, 7, 8, 9, 10, 11, 12, 13, 14, 15, 16, 17, 18, 19, other sugars, backbone and the base at N not given here; all uracils replaced by ribothymidine in both strands) | little to no degradation | 72.35 °C | 72.25 °C | 72.8 °C | 71.9 °C | about 72.3 °C | 7.4 °C | – | – | –
3 | III: β-gal siRNA, rT incorporated in the anti-sense strand only (SEQ ID NO:5/6) (chain 1 CNACACAAANCAGCGANNNTT; chain 2 AAANCGCNGANNNGNGNAGTT; RNA at 1, 2, 3, 4, 5, 6, 7, 8, 9, 10, 11, 12, 13, 14, 15, 16, 17, 18, 19, other sugars, backbone and the base at N not given here; ribothymidine replaces uracil in antisense strand only) | – | 72.4 °C | 69.8 °C | 72.9 °C | 71.9 °C | – | approximately 4.9 °C | – | – | –
4 | IV: β-gal siRNA, rT incorporated in the sense strand only (SEQ ID NO:3/4) (chain 1 CTACACAAATCAGCGATTTTT; chain 2 AAAUCGCUGAUUUGUGUAGTT; chain 1: RNA at 2, 10, 17, 18, 19, other sugars and backbone not given here; chain 2: RNA at 4, 8, 11, 12, 13, 15, 17, other sugars and backbone not given here; positions 1-19 ribonucleotides, further chemistry not fully specified) | little to no degradation | 67.8 °C | 67.8 °C | 67.8 °C | 67.8 °C | 67.8 °C | 2.9 °C | – | – | –
5 | LC20-19mer: No 3′ overhangs and unmodified: 5′-GGGUCGGAACCCAAGCUUA-3′ / 3′-CCCAGCCUUGGGUUCGAAU-p-5′ (siRNA; 5' phosphate on antisense, chemistry not fully specified; one strand is listed 3' to 5') | – | – | – | – | – | – | – | 4 | did not elicit an interferon response | –
6 | LC20-MD23: 5′-GGGT^rCGGAACCCAAGCT^r U^MeOA^MeOdTdT-3′ / 3′-CCCAGCCUUGGGUUCGAAU-p-5′ | – | – | – | – | – | – | – | 3 | – | –
7 | LC20-WT: Unmodified: 5′-GGGUCGGAACCCAAGCUUA dTdT-3′ / 3′-dAdT CCCAGCCUUGGGUUCGAAU-p-5′ | – | – | – | – | – | – | – | 4 | did not elicit an interferon response | 4
